In PMC10561253, “2-NBDG Uptake in Gossypium hirsutum in vitro ovules: exploring tissue-specific accumulation and its impact on hexokinase-mediated glycolysis regulation” (Frontiers in Plant Science, 2023):

Tested on: T1, GhHxk9
T1 construct: codon-optimized synthetic gene, E. coli BL21(DE3), pET-28-14His-bdSumo, tag cut off by bdSENP1, tagless wild-type; 51 kDa; printed residues: L398-K404 TLKDGEK, S132-R141 SEGLHFSPDR
Test: coupled assay with E. coli glucose-6-phosphate dehydrogenase, absorbance at […] nm
Assay type: biochemical, Gossypium hirsutum
Conditions: 1 mM ATP, 10 mM MgCl2, 1 mM NADP+, 100 mM Tris pH 7.5, 30 °C; read-out: apparent Km

OC[C@H]1OC(O)[C@H](O)[C@@H](O)[C@@H]1O (stereo partly drawn) [D-glucose]
Km: 37 ± 19.8 µM
